Assay results reported in patent US9896441B2 (Lycera Corporation, priority 2014, dated 2018).
pEC50: −log10 of the molar value.

Legend:
[1] = target: T1, RORγ-LBD (Homo sapiens, UniProt P51449); assay: RORγ-Ligand Binding Domain (LBD) TR-FRET Assay; format: biochemical; settings: RORγ-LBD TR-FRET
T1 construct: made in house; host or cells: SF9 cells (baculovirus); used as diluted lysate
T1 sequence (P51449 269-508 limits assumed): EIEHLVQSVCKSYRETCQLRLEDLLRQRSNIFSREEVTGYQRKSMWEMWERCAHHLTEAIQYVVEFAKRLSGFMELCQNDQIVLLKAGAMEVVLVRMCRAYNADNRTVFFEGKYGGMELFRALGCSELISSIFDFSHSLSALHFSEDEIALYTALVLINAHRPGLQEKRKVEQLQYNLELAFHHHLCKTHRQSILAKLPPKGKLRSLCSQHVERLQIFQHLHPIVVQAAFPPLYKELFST
Procedure, shortened: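 Lysate from SF9 cells expressing His-RORγ-LBD is diluted to about 3 nM final in 50 mM Tris pH 7.0 assay buffer. A biotin-tagged SRC1 LXXLL peptide goes in at 200 nM final, plus ursolic acid at 2 μM final. Test compounds carry 1% DMSO final; signal read by TR-FRET.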

[2] = target: T2, Gal4-RORγ-LBD (Homo sapiens, UniProt P51449); assay: Gal4-RORγ Luciferase Reporter Assay in HEK-293T Cells; format: cell-based; settings: HEK-293 cells, luciferase reporter, with ursolic acid
T2 construct: expressed in transfected cells
T2 sequence (P51449 269-508 limits assumed): T1 sequence (P51449 269-508 limits assumed)
Procedure, shortened: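 Max Response was taken as the upper plateau of a 4-parameter logistic fit of luciferase signal, normalized to 100 for wells without ursolic acid or compound. Transiently Gal4-RORγ-LBD/Gal4-luc transfected HEK-293 cells carrying […] ursolic acid were incubated with test compounds (0.2% DMSO) overnight at 37 °C and read with One-Glo.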

SMILES | pEC50 [1] | pEC50 [2]
CCOc1ncc(Cl)cc1S(=O)(=O)N1C[C@H](CCC(=O)O)Oc2ccc(/C=C(\C)c3c(F)cccc3Cl)cc21 [Example 68, (S,E)-3-(4-((5-Chloro-2-ethoxypyridin-3-yl)sulfonyl)-6-(2-(2-chloro-6-fluorophenyl)prop-1-en-1-yl)-3,4-dihydro-2H-benzo[b][1,4]oxazin-2-yl)propanoic acid] | > 6.30 | 5.30 to 6.30
COC(=O)CC[C@H]1CN(S(=O)(=O)c2cc(Cl)cnc2OCCO)c2cc(/C=C(\C)c3c(F)cccc3Cl)ccc2O1 [Example 69, Methyl (S,E)-3-(4-((5-chloro-2-(2-hydroxyethoxy)pyridin-3-yl)sulfonyl)-6-(2-(2-chloro-6-fluorophenyl)prop-1-en-1-yl)-3,4-dihydro-2H-benzo[b][1,4]oxazin-2-yl)propanoate] | > 6.30 | < 5.00
C/C(=C\c1ccc2c(c1)N(S(=O)(=O)c1cc(Cl)cnc1OCCO)C[C@H](CCC(=O)O)O2)c1c(F)cccc1Cl [Example 70, (S,E)-3-(4-((5-Chloro-2-(2-hydroxyethoxy)pyridin-3-yl)sulfonyl)-6-(2-(2-chloro-6-fluorophenyl)prop-1-en-1-yl)-3,4-dihydro-2H-benzo[b][1,4]oxazin-2-yl)propanoic acid] | > 6.30 | > 6.30
C/C(=C\c1ccc2c(c1)N(S(=O)(=O)c1cc(C(F)(F)F)cnc1OCCO)C[C@H](CCC(=O)O)O2)c1c(F)cccc1Cl [Example 71, (S,E)-3-(6-(2-(2-Chloro-6-fluorophenyl)prop-1-en-1-yl)-4-((2-(2-hydroxyethoxy)-5-(trifluoromethyl)pyridin-3-yl)sulfonyl)-3,4-dihydro-2H-benzo[b][1,4]oxazin-2-yl)propanoic acid] | > 6.30 | > 6.30
CCOc1sc(CC)nc1S(=O)(=O)N1C[C@H](CCC(=O)OC)Oc2ccc(/C=C(\C)c3c(F)cccc3Cl)cc21 [Example 72, Methyl (S,E)-3-(6-(2-(2-chloro-6-fluorophenyl)prop-1-en-1-yl)-4-((5-ethoxy-2-ethylthiazol-4-yl)sulfonyl)-3,4-dihydro-2H-benzo[b][1,4]oxazin-2-yl)propanoate] | > 6.30 | > 6.30
CCOc1sc(CC)nc1S(=O)(=O)N1C[C@H](CCC(=O)O)Oc2ccc(/C=C(\C)c3c(F)cccc3Cl)cc21 [Example 73, (S,E)-3-(6-(2-(2-Chloro-6-fluorophenyl)prop-1-en-1-yl)-4-((5-ethoxy-2-ethylthiazol-4-yl)sulfonyl)-3,4-dihydro-2H-benzo[b][1,4]oxazin-2-yl)propanoic acid] | > 6.30 | > 6.30
COC(=O)CC[C@H]1CN(S(=O)(=O)c2cncc(C(F)(F)F)c2)c2cc(/C=C(\C)c3c(F)cccc3Cl)ccc2O1 [Example 74, Methyl (S,E)-3-(6-(2-(2-chloro-6-fluorophenyl)prop-1-en-1-yl)-4-((5-(trifluoromethyl)pyridin-3-yl)sulfonyl)-3,4-dihydro-2H-benzo[b][1,4]oxazin-2-yl)propanoate] | > 6.30 | 5.30 to 6.30
C/C(=C\c1ccc2c(c1)N(S(=O)(=O)c1cncc(C(F)(F)F)c1)C[C@H](CCC(=O)O)O2)c1c(F)cccc1Cl [Example 75, (S,E)-3-(6-(2-(2-Chloro-6-fluorophenyl)prop-1-en-1-yl)-4-((5-(trifluoromethyl)pyridin-3-yl)sulfonyl)-3,4-dihydro-2H-benzo[b][1,4]oxazin-2-yl)propanoic acid] | > 6.30 | 5.30 to 6.30
CCOc1ncc(C(F)(F)F)cc1S(=O)(=O)N1C[C@H](CCC(=O)OC)Oc2ccc(/C=C(\C)c3c(Cl)cccc3C(F)(F)F)cc21 [Example 76, Methyl (S,E)-3-(6-(2-(2-chloro-6-(trifluoromethyl)phenyl)prop-1-en-1-yl)-4-((2-ethoxy-5-(trifluoromethyl)pyridin-3-yl)sulfonyl)-3,4-dihydro-2H-benzo[b][1,4]oxazin-2-yl)propanoate] | > 6.30 | 5.30 to 6.30
